The values that follow come from patent US20100093661A1, “COMPOSITION COMPRISING CHITOSAN AND AN ACIDIC DRUG FOR ORAL CONTROLLED RELEASE” (The Jordanian Pharmaceutical Manufacturing Co., priority 2007, published 2010).

One data set is described as follows: Water solubility. In kind it is physicochemical.
The conditions of data set [1]: single 200-mg oral dose, fasting subjects; cited from earlier work.

For `CC(=O)O.CC(C)Cc1ccc(C(C)C(=O)O)cc1` (centres unmarked) [Ibuprofen ethanoate], in “Water solubility”, the water solubility result is “water insoluble”.

`CC(C)Cc1ccc(C(C)C(=O)O)cc1` (centres unmarked) [Ibuprofen]: the “time of peak plasma levels after administration” value in data set [1] was “about 1 hr”.
